Measurements reported in the NIST ThermoML archive (doi:10.1016/j.fluid.2014.01.033).
Numbers after ± are expanded uncertainties.

Tests used:
[1] = refractive index (Na D-line) (dimensionless); details: 298.15 K; 101.33 kPa; Liquid; Standard Abbe refractometry
[2] = 298.15 K; 101.33 kPa; Liquid; Vibrating tube method

Structure (SMILES) | refractive index [1] | mass density [2]
CC#N [acetonitrile] | 1.3413 ± 0.0007 | 776.55 ± 0.19 kg/m3
CCCCCC [hexane] | 1.3725 ± 0.0007 | 655.12 ± 0.21 kg/m3
c1ccccc1 [benzene] | 1.4978 ± 0.0007 | 873.79 ± 0.17 kg/m3
